Corn plant response rating (crop injury, 0 = no effect, 100 = complete kill), pest or weed control and plant injury data for one compound are collected here from patent US12077503B2, “Substituted cyclic amides and their use as herbicides” (FMC CORPORATION, priority 2015, dated 2024).

Common to all, as to assay type: in vivo
The subject of one experiment is corn (Zea mays). The experiment is described as follows: Test A preemergence. The conditions noted are these: Zea mays, pre-emergence, 240 h, 0 to 100 scale (0 no effect, 100 complete control). Put shortly:
(§1)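 Visual injury scores from 0, no effect, to 100, complete control, were assigned versus untreated controls roughly 10 d after treatment in the greenhouse. Test chemicals, formulated with surfactant in a non-phytotoxic solvent, were applied to planted seeds as a preemergence soil spray or postemergence to one- to two-leaf plants 2 to 10 cm tall, in loam–sand soil.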

In experiment [1] the test system is crabgrass, large (Digitaria sanguinalis). Description: Test A preemergence. The conditions noted are these: Digitaria sanguinalis, pre-emergence, 240 h, 0 to 100 scale (0 no effect, 100 complete control), read-out: Plant response rating, Crabgrass, Large. Summed up: as §1
In experiment [2] the test system is morningglory (Ipomoea spp.). Description: Test A preemergence. The conditions noted are these: Ipomoea, pre-emergence, 240 h; Preemergence, 125 g ai/ha; 0 to 100 scale (0 no effect, 100 complete control); read-out: Plant response rating, Morningglory. Summed up: as §1
For experiment [3], the system named is velvetleaf (Abutilon theophrasti). The experiment is described as follows: Test A preemergence. The conditions noted are these: Abutilon theophrasti, pre-emergence, 240 h, 0 to 100 scale (0 no effect, 100 complete control), read-out: Plant response rating, Velvetleaf. Summed up:
as §1

Experiment [4] deals with wheat (Triticum aestivum). Description: Test A preemergence. The conditions noted are these: Triticum aestivum, pre-emergence, 240 h, 0 to 100 scale (0 no effect, 100 complete control), read-out: Plant response rating, Wheat. Put shortly: as §1
The subject of experiment [5] is crabgrass, large (Digitaria sanguinalis). Description: Test A postemergence. As to conditions: Digitaria sanguinalis, post-emergence, 240 h, Postemergence. Summed up: as §1
For experiment [6], the system named is morningglory (Ipomoea spp.). Description: Test A postemergence. As to conditions: Ipomoea, post-emergence, 240 h, Postemergence. Summed up:
as §1

For experiment [7], the system named is velvetleaf (Abutilon theophrasti). The experiment is described as follows: Test A postemergence. The conditions noted are these: Abutilon theophrasti, post-emergence, 240 h, Postemergence. Summed up: as §1

In the experiment with corn (Zea mays) (500 g ai/ha, preemergence), `O=C1NCC(c2ccccc2)C1C(=O)Nc1ccccc1` (stereo not drawn) [Compound 1358] gave a Corn plant response rating (crop injury, 0 = no effect, 100 = complete kill) at 500 g/ha of 0%. Besides, the Corn plant response rating (crop injury, 0 = no effect, 100 = complete kill) at 125 g/ha in the experiment on corn (Zea mays) (Preemergence, 125 g ai/ha) is 0%. Moreover, the pest or weed control at 500 g/ha in experiment [1] (500 g ai/ha, preemergence) was determined as 80%; in experiment [3] (500 g ai/ha, preemergence) it was 0%; in experiment [5] (500 g ai/ha, visual injury, 0 to 100 scale (0 no effect, 100 complete control), approx. 10 d, read-out: Plant response rating, Crabgrass, Large), 30%; in experiment [6] (500 g ai/ha, visual injury, 0 to 100 scale (0 no effect, 100 complete control), approx. 10 d, read-out: Plant response rating, Morningglory), 0%; in experiment [7] (500 g ai/ha, visual injury, 0 to 100 scale (0 no effect, 100 complete control), approx. 10 d, read-out: Plant response rating, Velvetleaf) it was 0%. The pest or weed control at 125 g/ha in experiment [1] (Preemergence, 125 g ai/ha) was determined as 20%; in experiment [2] it was 0%; in experiment [3] (Preemergence, 125 g ai/ha), 0%; in experiment [5] (125 g ai/ha, visual rating about 10 d after treatment, read-out: Crabgrass, Large plant response rating (0 to 100 scale)) it was 0%; in experiment [6] (125 g ai/ha, visual rating about 10 d after treatment, read-out: Morningglory plant response rating (0 to 100 scale)), 0%; in experiment [7] (125 g ai/ha, visual rating about 10 d after treatment, read-out: Velvetleaf plant response rating (0 to 100 scale)), 0%. The plant injury at 500 g/ha in experiment [4] (500 g ai/ha, preemergence) turned out to be 50%. In addition, the plant injury at 125 g/ha in experiment [4] (Preemergence, 125 g ai/ha) stood at 0%.
